Assay results reported in patent publication US10822318B2, “Lactone-based probes and methods of use thereof” (REGENTS OF THE UNIVERSITY OF MINNESOTA, priority 2017, dated 2020).

Key:
PBP3 = conditions: cited from earlier work
PBP1b = conditions: cited from earlier work
S. pneumoniae cells = assay: 3D-SIM imaging of lactone probe labeled cells; assay type: cell-based; conditions: wild-type and Δpbp1b strains, ≈41 cells examined
Method: Cells from an overnight culture were diluted to OD620 0.02 in 2 ml of fresh BHI prewarmed to 37° C. and incubated at 37° C. in an atmosphere of 5% CO2. At OD620 0.2, 1.5 ml of culture was added to a microfuge tube and centrifuged at room temperature for 5 min at 16000×g. The supernatant was discarded, the pellet was resuspended in 1 ml room temperature PBS, and the culture was centrifuged a second time. The supernatant was discarded and the pellet was resuspended in either 50 μl of PBS with 5 μg mL^−1 7FL or 100 μl PBS with 5 μg mL^−1 8T. The cells were incubated for 20 min at room temperature in the dark. After incubation the cells were spun and washed with 1 ml of PBS (7FL) or 1 ml of PBS containing 50 mM glucose (8T). The cells were spun a second time and washed with 200 μl of PBS (7FL) or 200 μl of PBS with 50 mM glucose (8T), and finally spun a third time and resuspended in 100 μl of cold (4° C.) GTE buffer (50 mM glucose, 20 mM Tris pH 7.5, 1 mM EDTA). The cells were spun down at 4° C., the supernatant was discarded, and the pellet was resuspended in 15 μl of Vectashield Hardest Antifade (Vector Labs) and kept on ice. 1.2 μl of cells in antifade was pipetted onto a clean coverslip, applied to a slide, and imaged via 3D-SIM. 3D-SIM was performed using the OMX 3D-SIM super-resolution system located in the Indiana University Bloomington Light Microscopy Imaging Center (www.indiana.edu/˜lmic/microscopes/index.html#OMX). The system used is equipped with four Photometrics Cascade II EMCCD cameras that allow simultaneous imaging of up to four colors, and is controlled by DV-OMX software, with image processing by Applied Precision softWoRx 6.0.0 software. Exposure times and % T settings for DAPI, Alexa 488, and Alexa 568 images were 5 ms and 100% for all three channels.
For pre-treatment with methicillin followed by lactone probe labeling, duplicate 2 ml cultures of each strain were created and incubated as described above. At OD620 0.12, methicillin was added to a final concentration of 0.1 μg mL^−1 to one culture for each strain, and the strains were placed back in the incubator. After 20 min, all cultures were harvested, labeled, and imaged as described above.
For labeling of cells with both lactone probes, the following changes were made: After a 20 min incubation with 7FL, the cells were spun down and washed once in 1 ml of PBS. The cells were spun again and resuspended in 100 μl of 8T in PBS at 5 μg mL^−1. The cells were incubated for 20 min at room temperature in the dark, and then washed and imaged as described above for 8T labeling.

PBP2x = target: T1, PBP2x (Streptococcus pneumoniae, UniProt P59676); assay: Methicillin pre-treatment controls, gel-based analysis; assay type: cell-based, S. pneumoniae; conditions: 7FL labeling
T1 construct: endogenous in cells; host or cells: S. pneumoniae IU1945 and E193 (Δpbp1b)
T1 sequence (P59676 whole entry): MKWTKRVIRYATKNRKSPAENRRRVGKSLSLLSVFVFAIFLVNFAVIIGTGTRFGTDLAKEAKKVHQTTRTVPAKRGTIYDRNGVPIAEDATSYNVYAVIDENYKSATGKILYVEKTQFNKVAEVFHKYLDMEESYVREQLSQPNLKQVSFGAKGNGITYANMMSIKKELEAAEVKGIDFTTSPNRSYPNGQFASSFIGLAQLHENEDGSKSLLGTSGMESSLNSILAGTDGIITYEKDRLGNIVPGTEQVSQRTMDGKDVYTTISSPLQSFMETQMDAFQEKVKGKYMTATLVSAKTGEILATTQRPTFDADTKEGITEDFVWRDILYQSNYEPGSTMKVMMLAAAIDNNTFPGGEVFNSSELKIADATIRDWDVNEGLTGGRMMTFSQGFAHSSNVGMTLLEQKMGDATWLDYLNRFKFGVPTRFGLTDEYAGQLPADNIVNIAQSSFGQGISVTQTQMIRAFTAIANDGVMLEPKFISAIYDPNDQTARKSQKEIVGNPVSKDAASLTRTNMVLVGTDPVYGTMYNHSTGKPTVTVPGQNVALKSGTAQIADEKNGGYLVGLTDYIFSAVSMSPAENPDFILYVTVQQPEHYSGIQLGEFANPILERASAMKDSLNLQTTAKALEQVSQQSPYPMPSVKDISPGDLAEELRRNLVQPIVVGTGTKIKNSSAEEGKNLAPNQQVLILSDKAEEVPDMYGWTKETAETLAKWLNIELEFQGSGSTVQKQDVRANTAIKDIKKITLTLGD
Method: Cells from 1.5 ml of S. pneumoniae IU1945 and E193 cultures at exponential phase (OD620˜0.2) were harvested by centrifugation (16,100×g for 2 min at RT) and washed with 1 ml of PBS, pH 7.4. Cell pellets were resuspended in 50 μl of PBS containing 0.1 μg/ml of methicillin and incubated for 30 min at RT. Cells were pelleted and washed in 1 ml of PBS. Next, the cells were resuspended in 50 μl of PBS containing 1 or 5 μg/ml of lac-L-Phe-FL or 5 μg/ml Boc-FL (as control) and incubated for 20 min at RT (10 min at RT for Boc-FL). Finally, the cells were resuspended in 100 μl PBS containing 1 or 10 mg/ml lysozyme and incubated for 30 min at 37° C. Cells were lysed and sample preparation for SDS-PAGE gel-based analysis was performed as described.

[1] = tested on: S. pneumoniae IU1945 PBPs; assay: Competition assays with Boc-FL for S. pneumoniae IU1945 PBPs; assay type: cell-based; conditions: S. pneumoniae IU1945 cells
Method: The protocol for SDS-PAGE gel preparation was previously described (Kocaoglu, O, et al. (2013) Curr Protoc Chem Biol 5, 239). Briefly, polyacrylamide gels were composed of 10% resolving gel (10.5 ml of 1.5 M Tris-HCl buffer pH 8.8, 10.5 ml of acrylamide:bis-acrylamide 29:1 (40% solution), 21 ml of H2O, 140 μl of 10% APS, 15 μl of tetramethylethylenediamine (TEMED)) and 4.5% stacking gel (2.5 ml of 0.5 M Tris-HCl buffer pH 6.8, 1.125 ml of acrylamide:bis-acrylamide 29:1 (40% solution), 6.375 ml of H2O, 30 μl of 10% APS, 10 μl of TEMED). Running parameters were 180 V, 400 mA, and 60 W for 1.5 h. Experiments to examine competition of acyl homoserine lactones or p-toluenesulfonic acid salts of the β-lactones with Boc-FL were performed with acrylamide:bis-acrylamide ratio of 37.5:1.
Cells from 1.5 ml of culture were harvested by centrifugation (16,100×g for 2 min at RT) and washed with 1 ml of PBS, pH 7.4. Cell pellets were resuspended in 50 μl of PBS containing 5, 10, and 20 μg/ml of β-lactone p-toluenesulfonic salts and incubated for 40 min at RT. Cells were pelleted and washed in 1 ml of PBS. Next, the cells were resuspended in 50 μl of PBS containing 5 μg/ml Boc-FL and incubated for 10 min at RT. Finally, the cells were resuspended in 100 μl PBS containing 1 or 10 mg/ml lysozyme and incubated for 30 min at 37° C. […]

E. coli = conditions: cited from earlier work
S. pyogenes = conditions: mice infected with S. pyogenes; cited from earlier work

[^3H]benzylpenicillin
deacylation rate (PBP3): 5.7e-05 s⁻¹ | deacylation rate (PBP1b): 5.6e-05 s⁻¹

COc1cccc(OC)c1C(=O)N[C@@H]1C(=O)N2[C@@H]1SC(C)(C)[C@@H]2C(=O)O [methicillin, reference compound]
methicillin-treated late division cells displaying empty septal rings (S. pneumoniae cells; labeled with 7FL): > 98% | methicillin-treated late divisional cells showing empty septal rings (S. pneumoniae cells; labeled with 8T): > 98% | PBP2x labeling following methicillin treatment (PBP2x): dramatically decreased

CC(=O)N[C@@H]1C(=O)O[C@@H]1C [SQ 26,517]
PBP inhibition (competition with Boc-FL) [1]: very weak inhibitor of PBP2a

O=C(N[C@@H]1C(=O)O[C@@H]1Cc1ccc([N+](=O)[O-])cc1)c1cccc(O)c1O [Obafluorin, obafluorin]
effect on cell morphology (E. coli): causes cell elongation | protection of infected mice (S. pyogenes): provides protection
